Results reported in patent US9260408B2, “Dihydroquinoline-2-one derivatives” (Hoffmann-La Roche Inc., priority 2011, dated 2016).
Where a name gives a salt, the structure may show the parent alone.

Tests used:
[1] = biological target: T1, human CYP11B2 (Homo sapiens, UniProt P19099); experiment: G-402 cellular enzyme assay, human CYP11B2 (aldosterone release, HTRF); assay type: cell-based; details: G-402 cells expressing human CYP11B2; 1 μM Deoxycorticosterone
T1 construct: expressed in transfected cells
T1 sequence (P19099 25-503): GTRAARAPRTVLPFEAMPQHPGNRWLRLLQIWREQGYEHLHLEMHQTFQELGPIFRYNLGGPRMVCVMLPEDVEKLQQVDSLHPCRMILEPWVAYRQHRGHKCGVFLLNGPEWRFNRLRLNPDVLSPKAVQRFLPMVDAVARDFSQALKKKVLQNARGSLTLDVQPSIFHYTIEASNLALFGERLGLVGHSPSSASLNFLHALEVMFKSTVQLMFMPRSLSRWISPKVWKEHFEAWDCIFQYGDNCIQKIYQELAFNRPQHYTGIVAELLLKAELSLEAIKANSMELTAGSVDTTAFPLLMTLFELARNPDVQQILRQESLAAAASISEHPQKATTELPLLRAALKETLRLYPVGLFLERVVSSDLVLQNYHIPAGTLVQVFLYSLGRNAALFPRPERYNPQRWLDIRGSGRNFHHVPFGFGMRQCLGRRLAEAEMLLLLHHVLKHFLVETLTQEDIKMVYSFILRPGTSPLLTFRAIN
In short: (§1)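 EC50 comes from least-squares fitting of a 4-parameter MMF curve to steroid product levels, measured by HTRF as aldosterone for CYP11B2 or cortisol for CYP11B1. Stably transfected G-402 host cells were given substrate (1 μM deoxycorticosterone or deoxycortisol, respectively) with inhibitor for 16 h in medium with 2.5% charcoal-treated FCS.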

[2] = biological target: T2, human CYP11B1 (Homo sapiens, UniProt P15538); experiment: G-402 cellular enzyme assay, human CYP11B1 (cortisol release, HTRF); assay type: cell-based; details: G-402 cells expressing human CYP11B1; 1 μM Deoxycortisol
T2 construct: expressed in transfected cells
T2 sequence (P15538 25-503): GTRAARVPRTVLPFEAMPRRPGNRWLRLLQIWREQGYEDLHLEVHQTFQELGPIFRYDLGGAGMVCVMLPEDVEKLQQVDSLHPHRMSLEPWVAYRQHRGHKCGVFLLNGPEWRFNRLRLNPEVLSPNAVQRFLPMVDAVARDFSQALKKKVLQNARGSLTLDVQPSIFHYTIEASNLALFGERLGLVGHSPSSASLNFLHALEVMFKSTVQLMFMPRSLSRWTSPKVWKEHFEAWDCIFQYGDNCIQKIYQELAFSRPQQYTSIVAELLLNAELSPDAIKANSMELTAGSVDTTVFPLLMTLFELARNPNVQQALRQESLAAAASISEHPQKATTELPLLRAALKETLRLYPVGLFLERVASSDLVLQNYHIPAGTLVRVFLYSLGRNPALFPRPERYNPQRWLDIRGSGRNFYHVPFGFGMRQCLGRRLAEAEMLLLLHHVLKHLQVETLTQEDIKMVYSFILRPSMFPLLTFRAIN
In short: as §1

With `CN1C(=O)CCc2cc(-c3cncc(CNC(=O)c4cccnn4)c3)ccc21` [Example 85] the EC50 [1] was 3 nM and the EC50 [2] was 48 nM.

With `CN1C(=O)CCc2cc(-c3cncc(CNC(=O)c4cnoc4C(F)(F)F)c3)ccc21` [Example 145] the EC50 [1] was 175 nM and the EC50 [2] was 3780 nM.

`CN1C(=O)CCc2cc(-c3cncc(O[C@H]4CCN(C(=O)OC(C)(C)C)C4)c3)c(F)cc21` [Example 52, (S)-3-[5-(7-fluoro-1-methyl-2-oxo-1,2,3,4-tetrahydro-quinolin-6-yl)-pyridin-3-yloxy]-pyrrolidine-1-carboxylic acid tert-butyl ester] showed an EC50 [1] of 30 nM and an EC50 [2] of 139 nM.

`CC(C)[C@H](CO)Nc1cncc(-c2ccc3c(c2)CCC(=O)N3C)n1` [Example 31, 6-[6-((R)-1-Hydroxymethyl-2-methyl-propylamino)-pyrazin-2-yl]-1-methyl-3,4-dihydro-1H-quinolin-2-one] gave an EC50 [1] of 172 nM and an EC50 [2] greater than 3000 nM.

With `CCC(=O)NC(C)c1cncc(-c2cc3c(cc2F)N(C)C(=O)CC3)c1C` (single isomer, unassigned) [Example 264, N-{(R or S)-1-[5-(7-Fluoro-1-methyl-2-oxo-1,2,3,4-tetrahydro-quinolin-6-yl)-4-methyl-pyridin-3-yl]ethyl}-propionamide] the EC50 [1] was 24 nM and the EC50 [2] was 2920 nM.

`CN1C(=O)CCc2cc(-c3cncc(OCCNC(=O)c4cnn(C)c4)c3)ccc21` [Example 103] was tested, and the EC50 [1] was 15 nM and the EC50 [2] was 2930 nM.

`Cc1nn(C)cc1C(=O)NCc1cncc(-c2ccc3c(c2)CCC(=O)N3C)c1` [Example 98] gave an EC50 [1] of 11 nM and an EC50 [2] of 360 nM.

`CCS(=O)(=O)NCc1cncc(-c2cc(Cl)c3c(c2)CCC(=O)N3C)c1` [Example 209, Ethanesulfonic acid [5-(8-chloro-1-methyl-2-oxo-1,2,3,4-tetrahydro-quinolin-6-yl)-pyridin-3-ylmethyl]-amide] showed an EC50 [1] of 162 nM and an EC50 [2] of 7540 nM.

Work on `CN1C(=O)CCc2cc(-c3cncc(O[C@H]4CCN(C(=O)c5cnn(C)c5)C4)c3)ccc21` [Example 255, 1-Methyl-6-{5-[(S)-1-(1-methyl-1H-pyrazole-4-carbonyl)-pyrrolidin-3-yloxy]-pyridin-3-yl}-3,4-dihydro-1H-quinolin-2-one] yielded an EC50 [1] of 13 nM and an EC50 [2] of 1320 nM.

In the case of `COC[C@@H]1CCCN1c1cncc(-c2ccc3c(c2)CCC(=O)N3C)c1` [Example 10, 6-[5-((S)-2-Methoxymethyl-pyrrolidin-1-yl)-pyridin-3-yl]-1-methyl-3,4-dihydro-1H-quinolin-2-one], the EC50 [1] is reported as 20 nM and the EC50 [2] is reported as 170 nM.

`CN1C(=O)CCc2cc(-c3cncc(NCc4ccccc4)c3)ccc21` [Example 12] showed an EC50 [1] of 2 nM and an EC50 [2] of 50 nM.

In the case of `CN1C(=O)CCc2cc(-c3cncc(CNS(=O)(=O)C(F)(F)F)c3)ccc21` [Example 163, C,C,C-Trifluoro-N-[5-(1-methyl-2-oxo-1,2,3,4-tetrahydro-quinolin-6-yl)-pyridin-3-ylmethyl]-methanesulfonamide], the EC50 [1] is reported as 61 nM and the EC50 [2] is reported as 2390 nM.

`CCN(C(C)c1cncc(-c2ccc3c(c2)CCC(=O)N3C)c1)S(=O)(=O)CC` (racemic) [Example 187, (rac)-Ethanesulfonic acid ethyl-{1-[5-(1-methyl-2-oxo-1,2,3,4-tetrahydro-quinolin-6-yl)-pyridin-3-yl]-ethyl}-amide] gave an EC50 [1] of 27 nM and an EC50 [2] of 705 nM.

With `CN1C(=O)CCc2cc(-c3cncc(CNC(=O)c4cn(CC(F)(F)F)nc4C4CC4)c3)ccc21` [Example 96] the EC50 [1] was 22 nM and the EC50 [2] was 1680 nM.

With `Cc1c(CN[S@+]([O-])C(C)(C)C)cncc1-c1cc2c(cc1F)N(C)C(=O)CC2` [Example 225, (R)-2-Methyl-propane-2-sulfinic acid [5-(7-fluoro-1-methyl-2-oxo-1,2,3,4-tetrahydro-quinolin-6-yl)-4-methyl-pyridin-3-ylmethyl]-amide] the EC50 [1] was 6 nM and the EC50 [2] was 691 nM.

For `Cc1cnc(C(=O)NCc2cncc(-c3ccc4c(c3)CCC(=O)N4C)c2)cn1` [Example 124], the EC50 [1] was 5 nM and the EC50 [2] was 138 nM.

Work on `CC(N)c1cncc(-c2ccc3c(c2)CCC(=O)N3C)c1` (single isomer, unassigned) [Example 64, 6-[5-((S or R)-1-Amino-ethyl)-pyridin-3-yl]-1-methyl-3,4-dihydro-1H-quinolin-2-one hydrochloride] yielded an EC50 [1] of 423 nM and an EC50 [2] of 12300 nM.

With `CCS(=O)(=O)NC(c1cncc(-c2ccc3c(c2)CCC(=O)N3C)c1)C1CC1` (racemic) [Example 177, (rac)-Ethanesulfonic acid {cyclopropyl-[5-(1-methyl-2-oxo-1,2,3,4-tetrahydro-quinolin-6-yl)-pyridin-3-yl]-methyl}-amide] the EC50 [1] was 117 nM and the EC50 [2] was 8460 nM.

`CN1C(=O)CCc2cc(-c3cncc(OC[C@@H]4CCCN4C(=O)OC(C)(C)C)c3)ccc21` [Example 51, (S)-2-[5-(1-Methyl-2-oxo-1,2,3,4-tetrahydro-quinolin-6-yl)-pyridin-3-yloxymethyl]-pyrrolidine-1-carboxylic acid tert-butyl ester] showed an EC50 [1] of 32 nM and an EC50 [2] of 1870 nM.

With `CCS(=O)(=O)NCCOc1cncc(-c2ccc3c(c2)CCC(=O)N3C)c1` [Example 151, ethanesulfonic acid {2-[5-(1-methyl-2-oxo-1,2,3,4-tetrahydro-quinolin-6-yl)-pyridin-3-yloxy]-ethyl}-amide] the EC50 [1] was 5 nM and the EC50 [2] was 90 nM.

`CN1C(=O)CCc2cc(-c3cncc(NCCO)c3)ccc21` [Example 4, 6-[5-(2-Hydroxy-ethylamino)-pyridin-3-yl]-1-methyl-3,4-dihydro-1H-quinolin-2-one] was tested, and the EC50 [1] was 11 nM and the EC50 [2] was 350 nM.

For `CN1C(=O)CCc2cc(-c3cncc(C4(NC(=O)c5ncccc5Cl)CC4)c3)ccc21` [Example 137, 3-Chloro-pyridine-2-carboxylic acid {1-[5-(1-methyl-2-oxo-1,2,3,4-tetrahydro-quinolin-6-yl)-pyridin-3-yl]-cyclopropyl}-amide], the EC50 [1] was 6 nM and the EC50 [2] was 872 nM.

In the case of `CCS(=O)(=O)NC(C)c1cncc(-c2ccc3c(c2)CCC(=O)N3C)c1` (single isomer, unassigned) [Example 173, Ethanesulfonic acid {(R or S)-1-[5-(1-methyl-2-oxo-1,2,3,4-tetrahydro-quinolin-6-yl)-pyridin-3-yl]-ethyl}-amide], the EC50 [1] is reported as 31 nM and the EC50 [2] is reported as 800 nM.

`Cc1cccnc1C(=O)NCc1cncc(-c2ccc3c(c2)CCC(=O)N3C)c1` [Example 115, 3-Methyl-pyridine-2-carboxylic acid [5-(1-methyl-2-oxo-1,2,3,4-tetrahydro-quinolin-6-yl)-pyridin-3-ylmethyl]-amide] showed an EC50 [1] of 1 nM and an EC50 [2] of 14 nM.

With `Cc1cc(F)cc(C)c1C(=O)NCc1cncc(-c2ccc3c(c2)CCC(=O)N3C)c1` [Example 93] the EC50 [1] was 23 nM and the EC50 [2] was 613 nM.

For `CN1C(=O)CCc2cc(-c3cncc(CNC(=O)CC(F)(F)F)c3)ccc21` [Example 78], the EC50 [1] was 121 nM and the EC50 [2] was 1140 nM.

For `Cc1c(CN)cncc1-c1cc2c(cc1F)N(C)C(=O)CC2` [Example 226, 6-(5-Aminomethyl-4-methyl-pyridin-3-yl)-7-fluoro-1-methyl-3,4-dihydro-1H-quinolin-2-one hydrochloride], the EC50 [1] was 11 nM and the EC50 [2] was 1770 nM.

`Cc1noc(C(F)(F)F)c1C(=O)NCc1cncc(-c2ccc3c(c2)CCC(=O)N3C)c1` [Example 136] was tested, and the EC50 [1] was 47 nM and the EC50 [2] was 2430 nM.
